Source: US20260152487A1 (Sitryx Therapeutics Limited, priority 2021, published 2026)

What was measured:
recombinant human PKM2 = target: T1, recombinant human PKM2 (Homo sapiens, UniProt P14618); assay: Human PKM2 activation assay (Kinase-Glo Plus luminescent detection of generated ATP); assay type: biochemical; conditions: for Emax: percentage activation normalised to DMSO vehicle (LOW) and 5 μM TEPP-46 (HIGH), read-out: hPKM2 Emax; for EC50: recombinant human PKM2 activation, 4-parameter logistic fit, read-out: hPKM2 EC50
T1 construct: His (N); purchased R&D Systems
Procedure, shortened: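 Luminescent ATP detection (Kinase-Glo Plus, 15 min, 26 °C) followed a 60 min, 26 °C shaken reaction of compound with […] His-tagged human PKM2, PEP and ADP in imidazole/KCl/MgCl2 buffer with Tween20 and BSA, pH 7.2.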

A549 cells = assay: A549 cell proliferation in low-serine medium (CellTiter-Glo 2.0 viable cell number); assay type: cell-based; conditions: Homo sapiens, 72 h, 3 days, Assay Medium with 20 μM L-serine
Experimental: The effect of compounds of Formula (Ia) on A549 cell proliferation in low-serine medium was assessed using a luminescence assay of viable cell number (CellTiter-Glo® 2.0, Promega) duplexed with a fluorescent cytotoxicity assessment (CelITox™ Green, Promega). Cell culture reagents were from ThermoFisher unless specified otherwise. Assay reagents were from Sigma-Aldrich unless specified otherwise. Test Compounds were prepared as 10 mM DMSO stocks and dilution series prepared in DMSO for direct dilution into culture medium.
Cells were passaged every 3-4 days at 80-90% confluence. The cell monolayer was washed twice with room-temperature Ca^2+/Mg-free PBS and 4 ml room-temperature trypsin-EDTA added to the flask. After 5 minutes' incubation (37° C., 5% CO2) to detach cells, trypsin was quenched with 13 ml warmed complete growth medium and the cells harvested and diluted to 2.4×10^4 cells/ml for dispensing into 384-well clear-bottom black-walled plates (600 cells/well).
Following overnight incubation, growth medium was aspirated from each well and the cells washed twice with Assay Medium comprising Basal Medium Eagle supplemented with 3% heat-inactivated dialysed FBS plus 2 mM L-glutamine plus 20 μM L-serine (Sigma-Aldrich). After aspiration of the final wash medium, Assay Medium containing Test Compound was added to each well. DMSO vehicle controls were included on each plate.
Cells were incubated for 3 days in a humidified incubator (37° C., 5% CO2) at which point CelITox™ Green and CellTiter-Glo® reagents were prepared according to the manufacturer's instructions. Triton-X was added to HIGH wells for cytotoxicity determination and the plate incubated for 30 minutes (20° C., ambient humidity and pCO2). CelITox™ Green reagent was added to each well and the plate covered, placed on an orbital shaker @450 rpm for 2 minutes, and incubated in the dark for 15 minutes (20° C., ambient humidity and pCO2). Endpoint fluorescence was measured using a plate reader (PHERAstar® FSX, BMG Labtech).
Following cytotoxicity determination, CellTiter-Glo® reagent was added to each well and the plate placed on an orbital shaker @450 rpm for 2 minutes to lyse cells. Plates were incubated in the dark for 15-30 minutes (20° C., ambient humidity and pCO2) prior to endpoint luminescence measurement (PHERAstar® FSX, BMG Labtech).
Proliferation was calculated by normalizing luminescence signals to LOW controls obtained from a parallel plate processed at the time of Test Compound challenge and HIGH (DMSO vehicle) wells from the compound plate. IC50 values were determined from a 4-parameter logistic fit of compound concentration-response curves.

T1 sequence (P14618 2-531 limits assumed): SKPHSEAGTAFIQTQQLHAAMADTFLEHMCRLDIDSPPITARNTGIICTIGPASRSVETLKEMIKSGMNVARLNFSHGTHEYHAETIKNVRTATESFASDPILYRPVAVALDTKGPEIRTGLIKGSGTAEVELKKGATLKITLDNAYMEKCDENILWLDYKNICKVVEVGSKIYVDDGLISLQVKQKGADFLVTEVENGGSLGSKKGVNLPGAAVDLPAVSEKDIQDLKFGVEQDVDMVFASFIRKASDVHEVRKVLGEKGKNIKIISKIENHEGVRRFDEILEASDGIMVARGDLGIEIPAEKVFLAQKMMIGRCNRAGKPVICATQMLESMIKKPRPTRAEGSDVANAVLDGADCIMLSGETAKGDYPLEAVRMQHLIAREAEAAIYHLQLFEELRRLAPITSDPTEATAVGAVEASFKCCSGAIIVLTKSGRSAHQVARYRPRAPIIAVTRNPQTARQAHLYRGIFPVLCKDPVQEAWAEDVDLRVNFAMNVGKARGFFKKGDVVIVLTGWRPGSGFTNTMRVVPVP

Compound	Emax (recombinant human PKM2) [%]	EC50 (recombinant human PKM2) [nM]	IC50 (A549 cells) [nM]
COc1ccc(S(=O)(=O)c2ccc3c(=O)n(Cc4ccccc4N)ncc3c2)cc1 [Example 43, 2-(2-aminobenzyl)-6-((4-methoxyphenyl)sulfonyl)phthalazin-1(2H)-one]	111	42.5	1.7
COc1ccc(S(=O)(=O)c2ccc3c(=O)n(Cc4cc[nH]n4)ncc3c2)cc1 [Example 6, 2-((1H-pyrazol-3-yl)methyl)-6-((4-methoxyphenyl)sulfonyl)phthalazin-1(2H)-one]	109	38.9	1.7
COc1ccc(S(=O)(=O)c2ccc3c(=O)n(Cc4ccno4)ncc3c2)cc1 [Example 45, 2-(isoxazol-5-ylmethyl)-6-((4-methoxyphenyl)sulfonyl)phthalazin-1(2H)-one]	83.5	435	26.2
COc1ccc(S(=O)(=O)c2ccc3c(=O)n(Cc4ccn(CCO)n4)ncc3c2)cc1 [Example 24, 2-((1-(2-hydroxyethyl)-1H-pyrazol-3-yl)methyl)-6-((4-methoxyphenyl)sulfonyl)phthalazin-1(2H)-one]	123	107	3
COc1ccc(S(=O)(=O)c2ccc3c(=O)n(Cc4c(Cl)ccnc4O)ncc3c2)cc1 [Example 102, 2-((4-chloro-2-hydroxypyridin-3-yl)methyl)-6-(4-methoxyphenylsulfonyl) phthalazin-1(2H)-one]	94.9	69.9	2.2
Cn1ncc2cc(Cn3ncc4cc(S(=O)(=O)c5ccccc5)ccc4c3=O)ccc21 [Example 36, 2-((1-methyl-1H-indazol-5-yl)methyl)-6-(phenylsulfonyl)phthalazin-1(2H)-]	70	207	20.6
COc1ccc(S(=O)(=O)c2ccc3c(=O)n(Cc4c(C)ccnc4O)ncc3c2)cc1 [Example 99, 2-((2-hydroxy-4-methylpyridin-3-yl)methyl)-6-(4-methoxyphenylsulfonyl)phthalazin-1(2H)-one]	107	138	4.6
COc1ccc(S(=O)(=O)c2ccc3c(=O)n(Cc4ccc(OC)nc4)ncc3c2)cc1 [Example 51, 6-((4-methoxyphenyl)sulfonyl)-2-((6-methoxypyridin-3-yl)methyl)phthalazin-1(2H)-one]	104	24.1	3.5
O=c1c2ccc(S(=O)(=O)c3ccccc3)cc2cnn1Cc1ccc(OCCO)nc1 [Example 21, 2-((6-(2-hydroxyethoxy)pyridin-3-yl)methyl)-6-(phenylsulfonyl)phthalazin-1(2H)-one]	102	131	12.1
O=c1c2ccc(S(=O)(=O)c3ccccc3)cc2cnn1Cc1ccccc1CCO [Example 63, 2-(2-(2-hydroxyethyl)benzyl)-6-(phenylsulfonyl)phthalazin-1(2H)-one]	101	167	4.3
CC1(C)Cc2cc(Cn3ncc4cc(S(=O)(=O)c5ccccc5)ccc4c3=O)ccc2O1 [Example 35, 2-((2,2-dimethyl-2,3-dihydrobenzofuran-5-yl)methyl)-6-(phenylsulfonyl)phthalazin-1(2H)-one]	110	183	10.4
NC(=O)c1ccccc1Cn1ncc2cc(S(=O)(=O)c3ccccc3)ccc2c1=O [Example 66, 2-((1-oxo-6-(phenylsulfonyl)phthalazin-2(1H)-yl)methyl)benzamide]	88.5	115	4.3
COCC(c1ccccc1)n1ncc2cc(S(=O)(=O)c3ccc(OC)cc3)ccc2c1=O (centres unmarked) [Example 82, 2-(2-methoxy-1-phenylethyl)-6-((4-methoxyphenyl)sulfonyl)phthalazin-1(2H)-one]	87.4	80.9	3.5
O=c1c2ccc(S(=O)(=O)c3ccccc3)cc2cnn1C(CO)c1ccccc1 (centres unmarked) [Example 19, 2-(2-hydroxy-1-phenylethyl)-6-(phenylsulfonyl)phthalazin-1(2H)-one]	65.3	133	4.2
O=c1c2ccc(S(=O)(=O)c3ccccc3)cc2cnn1Cc1ccc2c(c1)OCO2 [Example 57, 2-(benzo[d][1,3]dioxol-5-ylmethyl)-6-(phenylsulfonyl)phthalazin-1(2H)-one]	109	55	2.3
COc1ccc(S(=O)(=O)c2ccc3c(=O)n(Cc4cccnc4)ncc3c2)cc1 [Example 42, 6-((4-methoxyphenyl)sulfonyl)-2-(pyridin-3-ylmethyl)phthalazin-1(2H)-one]	103	64.5	1.5
COCC(c1ccccc1)n1ncc2cc(S(=O)(=O)c3ccccc3)ccc2c1=O (centres unmarked) [Example 67, 2-(2-methoxy-1-phenylethyl)-6-(phenylsulfonyl)phthalazin-1(2H)-one]	91.4	185	3.3
COc1ccc(S(=O)(=O)c2ccc3c(=O)n(Cc4ccnc(O)c4)ncc3c2)cc1 [Example 55, 2-((2-hydroxypyridin-4-yl)methyl)-6-((4-methoxyphenyl)sulfonyl)phthalazin-1(2H)-one]			21.7
O=C(c1ccc(NS(=O)(=O)c2cccc3cccnc23)cc1)N1CCN(CC2CC2)CC1 [Mitapivat, mitapivat, reference compound]			4.4

Other lines, results leading:

Emax (recombinant human PKM2) [%]	EC50 (recombinant human PKM2) [nM]	IC50 (A549 cells) [nM]	Compound
80.8	931	218	COCC(c1ccc(OC)nc1)n1ncc2cc(S(=O)(=O)c3ccccc3)ccc2c1=O (centres unmarked) [Example 8, 2-(2-methoxy-1-(6-methoxypyridin-3-yl)ethyl)-6-(phenylsulfonyl)phthalazin-1(2H)-one]
98.6	360	17.4	O=c1c2ccc(S(=O)(=O)c3ccccc3)cc2cnn1Cc1cccnc1 [Example 65, 6-(phenylsulfonyl)-2-(pyridin-3-ylmethyl)phthalazin-1(2H)-one]
99	802	89.1	O=c1c2ccc(S(=O)(=O)c3ccccc3)cc2cnn1C(F)(F)c1cccnc1 [Example 78, 2-(difluoro(pyridin-3-yl)methyl)-6-(phenylsulfonyl)phthalazin-1(2H)-one]
89.5	38.7	2.5	O=c1c2ccc(S(=O)(=O)c3ccccc3)cc2cnn1Cc1ccc(OC(F)F)nc1 [Example 62, 2-((6-(difluoromethoxy)pyridin-3-yl)methyl)-6-(phenylsulfonyl)phthalazin-1(2H)-one]
71.9	150	7.4	Cn1ncc2ccc(Cn3ncc4cc(S(=O)(=O)c5ccccc5)ccc4c3=O)cc21 [Example 39, 2-((1-methyl-1H-indazol-6-yl)methyl)-6-(phenylsulfonyl)phthalazin-1(2H)-one]
76	234	4.8	COc1ccc(S(=O)(=O)c2ccc3c(=O)n(Cc4ccc(Cl)cc4F)ncc3c2)cc1 [Example 46, 2-(4-chloro-2-fluorobenzyl)-6-((4-methoxyphenyl)sulfonyl)phthalazin-1(2H)-one]
107	68.9	3.2	COc1ccc(Cn2ncc3cc(S(=O)(=O)c4ccccc4)ccc3c2=O)nc1 [Example 59, 2-((5-methoxypyridin-2-yl)methyl)-6-(phenylsulfonyl)phthalazin-1(2H)-one]
124	243	15.8	NC(=O)c1c[nH]nc1Cn1ncc2cc(S(=O)(=O)c3ccccc3)ccc2c1=O [Example 15, 3-((1-oxo-6-(phenylsulfonyl)phthalazin-2(1H)-yl)methyl)-1H-pyrazole-4-carboxamide]
90	42.7	3.7	COc1ccc(S(=O)(=O)c2ccc3c(=O)n(Cc4cccc(OC(F)F)c4)ncc3c2)cc1 [Example 40, 2-(3-(difluoromethoxy)benzyl)-6-((4-methoxyphenyl)sulfonyl)phthalazin-1(2H)-one]
